In article PMC10610188, “Structure–Activity Relationship Studies of Chalcones and Diarylpentanoids with Antitumor Activity: Potency and Selectivity Optimization” (Pharmaceuticals, 2023):

Legend:
HCT116 p53^−/− cells = assay: SRB growth inhibition assay in HCT116 p53-/- cells; type: cell-based, human; settings: for SI1: Selective index 1: GI50 of HCT116 p53^−/−/GI50 of HCT116 p53^+/+; for GI50: Homo sapiens, HCT-116, SRB assay, 48 h of treatment
Method: (§1) To study the in vitro antitumor potential of chalcone CM-M345 (1) and diarylpentanoid BP-C4 (2) analogues, the sulforhodamine B (SRB) assay was used to evaluate the antiproliferative activity in human colorectal HCT116 cancer cells. To assess their cytotoxicity toward normal cells, the antiproliferative effect of these compounds was also tested in human fibroblasts HFF-1 cells. In order to confirm if inhibition of proliferation was associated with p53 activation in HCT116 p53^+/+ cells, all compounds were also tested in HCT116 cells in which p53 was knocked out (HCT116 p53^−/−) and the selective index was calculated and compared to the compounds CM-M345 (1) and BP-C4 (2), for which p53-dependent antiproliferative activity was previously reported by our research group (Table 1).
(§2) The colorectal adenocarcinoma HCT116 cells (HCT116 p53^+/+) and its p53-null isogenic derivative (HCT116 p53^−/−) were given by Prof. Vogelstein (The Johns Hopkins Kimmel Cancer Center, Baltimore, USA); the normal human fibroblasts HFF-1 cell lines were from ATCC (Rockville, MD, USA). Human cells were cultured in RPMI-1640 with UltraGlutamine (Lonza, VWR, Portugal) with 10% FBS (Gibco, Alfagene, Portugal) at 37 °C with 5% CO2. The SH-SY5Y cells were cultured in DMEM/F-12 (Lonza) and 10% FBS and 2mM L-glutamine (Gibco). The cells were incubated at 37 °C in a humidified atmosphere of 5% CO2. Mycoplasma was routinely checked using the MycoAlert™ PLUS kit (Lonza). […]

HFF-1 cells = assay: SRB growth inhibition assay in normal fibroblasts HFF-1; type: cell-based, human; settings: for SI2: Selective index 2: GI50 of HFF-1/GI50 of HCT116 p53^+/+; for GI50: Homo sapiens, HFF-1, SRB assay, 48 h of treatment
Method: as §1, §2

HCT116 p53^+/+ cells = assay: SRB growth inhibition assay in HCT116 p53+/+ cells; type: cell-based, human; settings: SRB assay, 48 h of treatment
Method: as §1, §2

## CCCc1c(OC)ccc(C(=O)/C=C/c2ccc(F)cc2)c1O [Compound 33, (E)-3-(4-fluorophenyl)-1-(2-hydroxy-4-methoxy-3-propylphenyl)prop-2-en-1-one]
other
  melting point: 115 to 117 °C
HCT116 p53^−/− cells
  SI1: Selective index 1: 0.77
  GI50: 7.2 ± 0.32 µM
HFF-1 cells
  SI2: Selective index 2: 0.89
  GI50: 8.23 ± 0.08 µM
HCT116 p53^+/+ cells; Homo sapiens, HCT-116, 48 h
  GI50: 9.25 ± 0.75 µM

## COc1cc(/C=C2\Cc3c(ccc(OC)c3OC)C2=O)cc(OC)c1OC [Compound 4, (E)-2-(3,4,5-trimethoxybenzylidene)-4,5-dimethoxy-2,3-dihydro-1H-inden-1-one]
other
  melting point: 165 to 168 °C
HCT116 p53^−/− cells
  SI1: Selective index 1: 0.82
  GI50: 3.1 ± 0.22 µM
HFF-1 cells
  SI2: Selective index 2: 1.34
  GI50: 5.1 ± 0.9 µM
HCT116 p53^+/+ cells; Homo sapiens, HCT-116
  GI50: 3.8 ± 0.32 µM

## CCCc1c(OC)ccc(C(O)/C=C/c2cc(OC)c(OC)c(OC)c2)c1O (stereo not drawn) [Compound 28, (E)-6-(1-hydroxy-3-(3,4,5-trimethoxyphenyl)allyl)-3-methoxy-2-propylphenol]
other
  melting point: 219 to 222 °C
HCT116 p53^−/− cells
  SI1: Selective index 1: 0.80
  GI50: 12 ± 5 µM
HFF-1 cells
  SI2: Selective index 2: 1.13
  GI50: 17 ± 4.4 µM
HCT116 p53^+/+ cells; Homo sapiens, HCT-116, 48 h
  GI50: 15 ± 1.73 µM

## O=C1/C(=C/c2ccc(Cl)cc2)CSC/C1=C\c1ccc(Cl)cc1 [Compound 20]
other
  melting point: 126 to 128 °C
HCT116 p53^−/− cells
  SI1: Selective index 1: 0.93
  GI50: 1.05 ± 0.05 µM
HFF-1 cells
  SI2: Selective index 2: 2.01
  GI50: 2.27 ± 0.09 µM
HCT116 p53^+/+ cells; Homo sapiens, HCT-116, 48 h
  GI50: 1.13 ± 0.17 µM

## CCCc1c(OC)ccc(C(=O)/C=C/c2ccc(Br)cc2)c1O [Compound 34, (E)-3-(4-bromophenyl)-1-(2-hydroxy-4-methoxy-3-propylphenyl)prop-2-en-1-one]
other
  melting point: 115 to 116 °C
HCT116 p53^−/− cells
  SI1: Selective index 1: 0.62
  GI50: 11.5 ± 0.145 µM
HFF-1 cells
  SI2: Selective index 2: 0.80
  GI50: 14.9 ± 0.232 µM
HCT116 p53^+/+ cells; Homo sapiens, HCT-116, 48 h
  GI50: 18.5 ± 0.35 µM

## O=C1/C(=C/c2ccc(Cl)cc2)Cc2ccccc21 [Compound 6]
other
  melting point: 179 to 181 °C
HCT116 p53^−/− cells
  GI50: > 30 µM
HFF-1 cells
  GI50: > 30 µM
HCT116 p53^+/+ cells; Homo sapiens, HCT-116, 48 h
  GI50: 21.5 to 30 µM
HCT116 p53^+/+ cells
  GI50: 21.5 ± 1.19 µM

## COc1cc(/C=C2\COc3ccccc3C2=O)cc(OC)c1OC [Compound 11]
other
  melting point: 109 to 111 °C
HCT116 p53^−/− cells
  SI1: Selective index 1: 0.97
  GI50: 6.1 ± 1 µM
HFF-1 cells
  SI2: Selective index 2: 1.32
  GI50: 8.3 ± 1.4 µM
HCT116 p53^+/+ cells; Homo sapiens, HCT-116, 48 h
  GI50: 6.7 to 8.6 µM
HCT116 p53^+/+ cells
  GI50: 6.3 ± 2.18 µM

## COc1cc2c(cc1OC)C(=O)/C(=C/c1cc(OC)c(OC)c(OC)c1)CC2 [Compound 10, (E)-2-(3,4,5-trimethoxybenzylidene)-6,7-dimethoxy-3,4-dihydronaphthalen-1(2H)-one]
other
  melting point: 145 to 147 °C
HCT116 p53^−/− cells
  SI1: Selective index 1: 0.73
  GI50: 2.9 ± 0.11 µM
HFF-1 cells
  SI2: Selective index 2: 1.35
  GI50: 5.4 ± 0.1 µM
HCT116 p53^+/+ cells; Homo sapiens, HCT-116, 48 h
  GI50: 6.7 to 8.6 µM
HCT116 p53^+/+ cells
  GI50: 4 ± 0.23 µM

## CCCc1c(OC)ccc2c(=O)cc(-c3cc(OC)c(OC)c(OC)c3)oc12 [Compound 27, 7-methoxy-8-propyl-2-(3,4,5-trimethoxyphenyl)-4H-chromen-4-one]
other
  melting point: 153 to 155 °C
HCT116 p53^−/− cells
  GI50: > 30 µM
HFF-1 cells
  GI50: > 30 µM
HCT116 p53^+/+ cells; Homo sapiens, HCT-116, 48 h
  GI50: > 30 µM

## O=C1C(Cc2ccc(Cl)cc2)COCC1Cc1ccc(Cl)cc1 (stereo not drawn) [Compound 31, 3,5-bis(4-chlorobenzyl)tetrahydro-4H-pyran-4-one]
other
  melting point: 145 to 146 °C
HCT116 p53^−/− cells
  GI50: > 30 µM
HFF-1 cells
  GI50: > 30 µM
HCT116 p53^+/+ cells; Homo sapiens, HCT-116, 48 h
  GI50: > 30 µM

## COc1cc2c(cc1OC)C(=O)/C(=C/c1cc(OC)c(OC)c(OC)c1)C2 [Compound 5]
other
  melting point: 156 to 159 °C
HCT116 p53^−/− cells
  SI1: Selective index 1: 0.67
  GI50: 4.1 ± 0.36 µM
HFF-1 cells
  SI2: Selective index 2: 0.52
  GI50: 3.2 ± 0.07 µM
HCT116 p53^+/+ cells; Homo sapiens, HCT-116, 48 h
  GI50: 6.1 ± 0.12 µM

## COc1cc(/C=C2\CSC/C(=C\c3cc(OC)c(OC)c(OC)c3)C2=O)cc(OC)c1OC [Compound 24]
other
  melting point: 219 to 222 °C
HCT116 p53^−/− cells
  SI1: Selective index 1: 1.84
  GI50: 0.57 ± 0.009 µM
HFF-1 cells
  SI2: Selective index 2: 0.74
  GI50: 0.23 ± 0.02 µM
HCT116 p53^+/+ cells; Homo sapiens, HCT-116, 48 h
  GI50: 0.31 ± 0.03 µM
